According to publication PMC8769378, “Underlining the Importance of Peripheral Protic Functional Groups to Enhance the Proton Exchange of Gd-Based MRI Contrast Agents” (Inorganic Chemistry, 2021):

How the values were obtained:
[1] = Acid-assisted dissociation kinetics of Gd^III complexes followed by ^1H NMR relaxometry
Source text: In order to investigate the kinetic inertness of the Gd^III complex, the dissociation reactions of GdL2 were followed by ^1H NMR relaxometry (21 MHz and 298 K) in the presence of large acid excess ([HCl] = 0.01–1.0 M) to guarantee the pseudo-first-order kinetic conditions.
The kinetic inertness of the GdL2 was characterized by the rates of the dissociation reactions taking place in 0.01–1.0 M HCl solution. The dissociation reactions of the GdL2 were followed by measuring the longitudinal relaxation time of H2O protons (T1) with a Stelar relaxometer connected to a Bruker WP80 NMR electromagnet adapted to variable-field measurements (15–80 MHz proton Larmor frequency). The temperature was controlled with a Stelar VTC-91 airflow heater equipped with a calibrated copper–constantan thermocouple (uncertainty of ±0.1 °C). Measures were carried out at 21 MHz and 25 °C. The longitudinal relaxation time (T1) was measured with the “inversion recovery” method (180° – τ – 90°) by using 16 different τ values with a typical 90° pulse width of 6.5 μs, 4 scans. The measurements were performed with a 1 mM solution of the GdL2 complex. The relaxivity values were given as r1 = 1/T1p + 1/T1w where T1p and T1w are the relaxation times of the bulk water protons in the presence and absence of GdL2. The pseudo-first-order rate constants (kd) were calculated by fitting the relaxation rate (r1 = 1/T1p) data to eq 4. […] 4 where rr and rv are the relaxivity values of the reactants and the product (Gd^3+: r1p = 12.85 (2) mM^–1 s^–1, 21 MHz, 25 °C) and rt is the measured relaxivity at reaction time t. The temperature was maintained at 25 °C, and the ionic strength of the solutions was kept constant at [H^+] ≤ 0.15 M, [HCl] + [NaCl] = 0.15 M. The calculation of the kinetic parameters was performed by the fitting of the absorbance–time and relaxation rate–time data pairs with the Micromath Scientist computer program (version 2.0, Salt Lake City, UT).
Kinetic inertness of GdL2
In order to investigate the kinetic inertness of GdL2, the dissociation reactions of GdL2 were followed
by 1H-NMR relaxometry in the presence of large acid excess ([HCl]= 0.01 – 1.0 M) to guarantee the
pseudo-first-order kinetic conditions. The R1obs values as a function of time for the dissociation
In the presence of HCl excess, the dissociation of GdL2 can be treated as a pseudo-first-order process
and the rate of the reaction can be expressed by Eq. (S7)
where kd is a pseudo-first-order rate constant, [GdL]t and [GdL]tot are the concentrations of the GdL
species at time t and the total concentration of the complex, respectively. The rates of the dissociation
reactions were determined at different concentrations of HCl ([HCl]=0.01 – 1.0 M).
The proton assisted dissociation
of GdL2 might occur by the equilibrium formation of a protonated *Gd(H2L2) intermediate (Eq.
(S8)), which dissociates spontaneously (Eq. (S9)).
Gd(HL2) + H Gd(H2L2) (S8)

[2] = Fit of relaxivity vs pH profiles: proton exchange kinetic and relaxation parameters; type: physicochemical; conditions: 0.15 M NaCl, 298 K
Protocol: At pH >3, the r1 values of GdL2 decrease with the increase of pH from 6.6 mM^–1 s^–1 to reach a plateau of 5.1 mM^–1 s^–1 around pH = 7.5. A further increase of the pH results in the slight increase of r1 reaching a maximum around pH = 9.5. Finally, at pH >9.5, another small decrease in r1 is observed. On the other hand, in the case of GdL1, the r1 values are independent from the pH in the range 4.0–7.5, whereas at pH >8.0, r1 increases up to 5.2 mM^–1 s^–1. The r1 values of GdL1 were measured in the pH range 4–10 in order to avoid the hydrolysis of the methyl ester. […] Then, the overall relaxivity, r1, is given by eq 1: [drawing 1] 1 where r1^is, r1^os, and r1^pr are the relaxivity components due to the inner and outersphere water molecules and the −OH group, respectively. r1^pr can be expressed as follows:[26]−[28] [drawing 2] 2
According to the proposed reaction mechanism, the rate of acid-catalyzed proton exchange of GdL2 and Gd(HL2) is vH = kH[H3O^+][GdL2] and vH = kH[H3O^+][Gd(HL2)], where the kH rate constant characterizes the acid-catalyzed proton exchange processes of GdL2 and Gd(HL2) species. Because of the fast internal rearrangement, the alcoholic −OH and −COOH protons cannot be distinguished, and their lifetime is τp = (kH[H^+])^−1 in both cases. The rate of the base-catalyzed exchange between the alcoholic −OH proton of GdL1 and GdL2 and the bulk is vOH = kOH[OH^–][GdL] and τp = (kOH [OH^–])^−1, where the rate constant kOH characterizes the base-catalyzed proton exchange process for GdL1 and GdL2. Both acid- and base-catalyzed exchange mechanisms require the diffusion-controlled formation of an H-bonded complex and subsequently the rapid separation of the corresponding conjugate acid and base.[29] By considering the proposed reaction mechanism, eq 2 can be rewritten as follows: [drawing 3] 3 where αH = KGdLH–1[H^+] + KGdHLKGdLH–1[H^+]^2, ^GdHLr1^is+os, ^GdLr1^is+os, and ^GdLH–1r1^is+os are the sum of r1^is and r1^os for GdHL, GdL, and GdLH–1 species, respectively. Whereas for GdL2 the experimental data (Figure 1) were fitted to eq 3 (Table 2), in the case of GdL1, eq 3 was modified to account for the formation of GdL1 and Gd(L1)H–1 species and the base-catalyzed exchange of the −OH proton. Thus, the first and fourth terms and kH[H^+] of the denominator in the last term in the brackets were not considered.
Proton relaxation measurements (1/T1) and the resulting 1/T1 NMRD profiles were measured on a fast-field cycling (FFC) Stelar SmarTracer relaxometer over a continuum of magnetic field strengths from 0.000 24 to 0.25 T (corresponding to 0.01–10 MHz proton Larmor frequencies). The relaxometer operates under computer control with an absolute uncertainty in 1/T1 of ±1%. […] Furthermore, the real temperature inside the probe head was additionally monitored by a Fluke 52 k/j digital thermometer (Fluke, Zürich, Switzerland). The gadolinium concentration was determined by measuring the bulk magnetic susceptibility shifts of the t-BuOH ^1H NMR signal. Additional data in the 20–120 MHz frequency range were obtained with a high field relaxometer (Stelar) equipped with the HTS-110 3T metrology cryogen-free superconducting magnet. […] The pH-dependent relaxivity measurements of GdL1 and GdL2 complexes were carried out by direct titration of the samples (GdL2, 3.0 < pH < 12.5; GdL1, 4 < pH < 10). The pH was adjusted by the stepwise addition of concentrated NaOH or HCl solution. […]

- kd at pH = 7.4 ([1]; calculated from acid-assisted dissociation only, pH = 7.4, 298 K, comparators from literature constants): 9.01 × 10^–12 s^–1
- K^HGdL ([1]; protonation constant of GdHL from kinetic data, 298 K): 0.5 ± 0.1 (GdHL) M^–1
SMILES: O=C([O-])CN1CCN(CC(=O)[O-])CCN(CC(O)C(=O)O)CCN(CC(=O)[O-])CC1.[Gd+3] (centres unmarked) [GdL2]
- k1 (acid-catalyzed dissociation rate constant) ([1]; k1 = kGdH2L × K^HGd(HL), [HCl] = 0.01–1.0 M, 298 K): (2.3 ± 0.1) × 10^–4 M^–1 s^–1
- ^GdHLr1^is+os ([2]; 20 MHz): 5.11 ± 0.08 mM^–1 s^–1
- ^GdLH–1r1^is+os ([2]; 20 MHz): 4.93 ± 0.03 mM^–1 s^–1
- ^GdLr1^is+os ([2]; 20 MHz): 4.85 ± 0.04 mM^–1 s^–1
- kH × 10^–11 ([2]; acid-catalyzed proton exchange): 1.5 ± 0.2 M^–1 s^–1
- kOH × 10^–10 ([2]; base-catalyzed proton exchange): 0.17 ± 0.04 M^–1 s^–1
